Data: US11116778B2, “Prodrugs of ALOX-15 inhibitors and methods of using the same” (EMPIRICO INC., priority 2019, dated 2021)

Target: T1, 15-lipoxygenase (Oryctolagus cuniculus, UniProt P12530)
T1 construct: Animals were then euthanized and nasal mucosa was collected; tissue Covance; host or cells: nasal mucosa of NZW rabbits
T1 sequence (P12530 1-663): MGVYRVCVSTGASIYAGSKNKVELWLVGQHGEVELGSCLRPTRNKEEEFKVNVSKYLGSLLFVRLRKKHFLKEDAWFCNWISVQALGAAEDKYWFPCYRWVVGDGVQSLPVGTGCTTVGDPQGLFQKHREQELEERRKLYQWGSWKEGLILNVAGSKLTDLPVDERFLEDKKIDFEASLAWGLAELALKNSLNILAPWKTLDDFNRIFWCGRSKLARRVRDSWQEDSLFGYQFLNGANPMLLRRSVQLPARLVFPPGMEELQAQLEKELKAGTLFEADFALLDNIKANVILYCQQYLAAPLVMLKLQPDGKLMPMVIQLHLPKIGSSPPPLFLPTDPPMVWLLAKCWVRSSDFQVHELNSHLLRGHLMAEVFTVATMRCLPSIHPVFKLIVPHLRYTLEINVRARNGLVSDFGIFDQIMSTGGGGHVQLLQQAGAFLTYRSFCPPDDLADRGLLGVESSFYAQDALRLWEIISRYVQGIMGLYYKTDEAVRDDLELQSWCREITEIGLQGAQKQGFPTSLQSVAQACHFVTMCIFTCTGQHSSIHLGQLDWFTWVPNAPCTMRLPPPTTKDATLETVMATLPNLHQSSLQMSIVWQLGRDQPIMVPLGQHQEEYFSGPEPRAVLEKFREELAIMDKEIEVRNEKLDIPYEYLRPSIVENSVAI
Assay: 15-HETE levels in rabbit nasal mucosa after nasal administration of compound 5 (IL4/IL13 inflammation model)
Assay type: in vivo
Conditions: rostral and caudal regions
Protocol: Six (6) female NZW rabbits were employed in this study. Rabbits were obtained from Covance (Denver Pa.). Rabbits were between approximately 10 and 12 months of age at the time of study start. At time point 0, all animals received 50 μL of solution containing rabbit IL4 (RND Systems/Biotechne) and human IL13 (PreproTech) at a concentration of 0.25 mg/mL each in 0.5×PBS containing 12.5 mg/mL BSA per nostril. This was administered intranasally via a venous catheter attached to a micropipette. The animal was positioned in a supine manner and the venous catheter inserted into the nostril. The volume was introduced into the nasal cavity and the same procedure was repeated with the other nostril.
At the 2, 4, and 6 hour time points, animals in Group 1 (n=3) received 0.2 mL of vehicle (0.9% saline) per nostril and the animals in Group 2 (n=3) received 0.2 mL of compound 5 (10 mM) in vehicle per nostril. […]
Nasal lavage and serum samples were analyzed for the levels of compound 3 and compound 5. […] Compound 3 was quantified using LC-MS/MS (QTrap5500, Applied Biosystems). […] Compound 5 was quantified using LC-MS/MS (QTrap5500, Applied Biosystems). […]

mean 15-HETE levels in nasal mucosa versus vehicle (FIG. 9) (rabbits, IL4/IL13 intranasal, compound 5 10 mM 0.2 mL per nostril at 2, 4, 6 hours): lower
mean esterified 15-HETE levels in nasal mucosa versus vehicle (FIG. 10) (total after NaOH hydrolysis minus free 15-HETE): lower
Compound: O=C(Nc1ccc(F)cc1Cl)c1nn(COP(=O)(O)O)c(Cl)c1Cl [compound 5, (4,5-dichloro-3-((2-chloro-4-fluorophenyl)carbamoyl)-1H-pyrazol-1-yl)methyl dihydrogen phosphate]
